Square brackets hold non-standard residues; d marks the D form. Peptide text beside a SMILES is read from it.
What was measured:
Bcl-w = target: T1, Bcl-w (Homo sapiens, UniProt Q92843); conditions: background literature; read-out: IC50 against Bcl-w; cited from earlier work
T1 sequence (Q92843 1-193): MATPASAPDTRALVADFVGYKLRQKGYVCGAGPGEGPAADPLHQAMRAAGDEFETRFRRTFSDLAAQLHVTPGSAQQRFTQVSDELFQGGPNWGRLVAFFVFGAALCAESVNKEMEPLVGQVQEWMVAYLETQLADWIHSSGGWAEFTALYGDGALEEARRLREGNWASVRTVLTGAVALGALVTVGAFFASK

Mcl-1 [1] = target: Mcl-1 (Mus musculus, UniProt P97287); conditions: background literature; read-out: IC50 against Mcl-1; cited from earlier work
Chain of Mcl-1 (Mus musculus, UniProt P97287) (P97287 152-308 limits assumed): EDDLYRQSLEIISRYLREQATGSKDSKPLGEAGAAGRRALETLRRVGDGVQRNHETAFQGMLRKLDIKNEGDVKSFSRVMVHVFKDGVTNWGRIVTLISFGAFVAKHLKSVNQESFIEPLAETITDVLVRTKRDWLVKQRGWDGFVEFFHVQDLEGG

Bfl-1/A1 = conditions: background literature; read-out: IC50 against Bfl-1/A1; cited from earlier work
Bcl-2 = Bcl-2 (Homo sapiens, UniProt P10415); conditions: background literature; read-out: IC50 against Bcl-2; cited from earlier work
Chain of Bcl-2 (P10415 whole entry, species assumed): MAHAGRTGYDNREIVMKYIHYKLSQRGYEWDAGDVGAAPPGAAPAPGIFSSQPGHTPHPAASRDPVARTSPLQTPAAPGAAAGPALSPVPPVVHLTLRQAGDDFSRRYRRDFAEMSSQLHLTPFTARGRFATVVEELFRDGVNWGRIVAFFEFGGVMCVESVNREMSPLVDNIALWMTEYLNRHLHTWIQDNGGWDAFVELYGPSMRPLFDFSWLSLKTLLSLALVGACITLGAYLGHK

Bcl-xL = Bcl-xL (Homo sapiens, UniProt Q07817); conditions: background literature; read-out: IC50 against Bcl-xL; cited from earlier work
Chain of Bcl-xL (Q07817 whole entry, species assumed): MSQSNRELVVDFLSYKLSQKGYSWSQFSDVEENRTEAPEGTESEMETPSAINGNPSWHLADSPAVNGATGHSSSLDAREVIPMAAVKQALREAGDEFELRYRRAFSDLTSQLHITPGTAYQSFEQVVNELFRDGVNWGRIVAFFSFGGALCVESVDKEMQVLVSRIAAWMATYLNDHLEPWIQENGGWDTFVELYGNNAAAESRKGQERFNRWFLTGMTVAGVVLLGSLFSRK

[2] = target: T2, full-length human MDM2 (GST-MDM2) (Homo sapiens, UniProt Q00987); assay: ELISA, inhibition of p53-MDM2 interaction; assay type: binding; conditions: relative to comparator linear peptide
T2 construct: GST-MDM2 and GST-MDMX containing full-length human MDM2 and MDMX; made in house; host or cells: Escherichia coli
T2 sequence (Q00987 whole entry): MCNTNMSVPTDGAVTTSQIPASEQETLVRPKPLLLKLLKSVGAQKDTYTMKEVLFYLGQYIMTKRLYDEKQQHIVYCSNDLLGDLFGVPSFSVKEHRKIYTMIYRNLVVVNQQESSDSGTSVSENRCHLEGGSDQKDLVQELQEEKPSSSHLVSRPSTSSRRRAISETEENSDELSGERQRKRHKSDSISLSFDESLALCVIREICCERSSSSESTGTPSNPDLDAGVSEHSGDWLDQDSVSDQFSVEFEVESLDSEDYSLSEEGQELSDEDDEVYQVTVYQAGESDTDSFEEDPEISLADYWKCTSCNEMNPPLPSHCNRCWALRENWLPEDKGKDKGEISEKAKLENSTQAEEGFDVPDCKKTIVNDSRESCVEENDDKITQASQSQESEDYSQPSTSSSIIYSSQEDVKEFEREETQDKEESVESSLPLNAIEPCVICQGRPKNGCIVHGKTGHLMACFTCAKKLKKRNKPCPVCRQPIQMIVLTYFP
Text: FIG. 10. ELISA data of the cross-linked PDI analogs. The experiments were repeated three times and the resulting data were plotted with GraphPad Prism 5.0 to derive the average IC50 values along with standard deviations.
ELISA Assay. GST-MDM2 and GST-MDMX containing full-length human MDM2 and MDMX and His6-tagged human p53 were expressed in Escherichia coli and purified by glutathione agarose and Ni^2+-nitrilotriacetic acid beads, respectively, under non-denaturing conditions. Microtiter plates were coated with 2.5 μg/ml His6-p53 in PBS buffer for 16 hours. After washing with PBS containing 0.1% Tween-20 (PBST), the plates were blocked with PBST containing 5% nonfat dry milk (PBSTM) for 30 minutes. Peptides were dissolved in DMSO. GST-MDM2 and MDMX (5 μg/ml) were mixed with peptides in PBSMT containing 10% glycerol and 10 mM dithiolthreitol prior to their additions to the wells at the specified concentrations. The incubation was allowed to proceed for 1 hour at room temperature before the plates were washed with PBST. […] The plates were developed by incubation with TMB peroxidase substrate (KPL, Gaithersburg, Md.) and measured by absorbance at 450 nm. The data was analyzed with the Origin 6.0 software. […]

trypsin [3] = target: T3, trypsin (Sus scrofa, UniProt P00761); assay: Trypsin-mediated proteolytic stability assay
T3 sequence (P00761 9-231): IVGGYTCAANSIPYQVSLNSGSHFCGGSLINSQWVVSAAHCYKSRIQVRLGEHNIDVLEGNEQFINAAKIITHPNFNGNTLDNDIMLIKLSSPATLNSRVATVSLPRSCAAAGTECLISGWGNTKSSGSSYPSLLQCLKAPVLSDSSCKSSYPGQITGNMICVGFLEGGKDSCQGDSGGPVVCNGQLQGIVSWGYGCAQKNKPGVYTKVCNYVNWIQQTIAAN
Protocol: (§1) Proteolytic stability of the linear and stapled Noxa peptides against trypsin (Type IX-S, 13,000-20,000 unit/mg, Sigma) and chymotrypsin (Type II, 40 unit/mg, Sigma). To a solution of 400 μL of 0.25 mM peptide in NH4HCO3 buffer, pH 8.0, was added 80 μL trypsin (5 μg/mL) or chymotrypsin (25 μg/mL), and the resulting solution was incubated at 37° C. At the indicated times, 40 μL of the solution was transferred to 40 μL trifluoroacetic acid to quench the reaction. The samples were analyzed by reverse-phase HPLC using benzophenone as an injection control.

Mcl-1 [4] = target: Mcl-1 (Homo sapiens, UniProt Q07820); assay: ELISA of cross-linked Noxa peptides; assay type: binding
Chain of Mcl-1 (Homo sapiens, UniProt Q07820) (Q07820 whole entry, species assumed): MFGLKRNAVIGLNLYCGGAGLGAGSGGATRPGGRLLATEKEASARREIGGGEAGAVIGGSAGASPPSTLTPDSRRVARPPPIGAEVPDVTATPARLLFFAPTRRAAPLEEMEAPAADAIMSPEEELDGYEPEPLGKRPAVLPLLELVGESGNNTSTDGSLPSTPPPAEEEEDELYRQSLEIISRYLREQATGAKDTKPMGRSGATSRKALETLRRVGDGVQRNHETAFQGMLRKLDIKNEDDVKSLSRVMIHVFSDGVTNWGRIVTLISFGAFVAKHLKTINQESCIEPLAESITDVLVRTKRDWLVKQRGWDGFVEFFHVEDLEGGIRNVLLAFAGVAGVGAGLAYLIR

Water solubility = assay type: physicochemical
chymotrypsin [5] = target: T4, chymotrypsin (Bos taurus, UniProt P00766); assay: Chymotrypsin proteolytic stability assay
Protocol: as §1

[6] = Circular dichroism, percent helicity; assay type: physicochemical; conditions: compared to the linear NoxaBH3 peptide, 50 μM in 20% ACN/H2O
Protocol: FIG. 12. […] The peptides were dissolved in 20% ACN/H2O for a final concentration of 50 μM.
Circular Dichroism Study. […] The spectra were recorded in the wavelength range of 190-250 nm and averaged over 3 scans with a resolution of 0.5 nm, a bandwidth of 1.0 nm and a response time of 4 s. The sensitivity and the speed of the spectrometer were set to 100 mdeg and 50 nm/min, respectively. All peptides were dissolved in 20% acetonitrile/H2O to reach final concentration of 50 μM.

GST-Mcl-1 = GST-Mcl-1 (Homo sapiens, UniProt Q07820); assay: Competitive fluorescence polarization assay; assay type: binding; conditions: Noxa peptides, three repeats ± SD; read-out: FP, IC50
Chain of GST-Mcl-1 (Q07820 whole entry): as the sequence (Q07820 whole entry, species assumed) above
Protocol: Competitive Florescence Polarization Assay. The binding affinity of the Noxa peptides toward GST-Mcl-1 was determined in a competitive fluorescence polarization assay with the fluorescein-labeled Bak or Bim. Briefly, fluorescein-labeled Bak was incubated with GST-Mcl-1 in a binding buffer (PBS, 0.005% Tween-20, pH7.4) at room temperature in a 96-well microtiter plate. […] The reading was repeated at various time points to ensure that the competition has reached equilibrium.

trypsin [7] = target: T3, trypsin; assay: in vitro; conditions: pig (porcine), pH 8
Protocol: as §1

chymotrypsin [8] = target: T4, chymotrypsin; assay: in vitro; conditions: cattle (bovine), pH 8
Protocol: as §1

Q: Which IC50 (Bcl-w) does the source give for “NoxaBH3-(18-43): human Noxa BH3 peptide, residues 18-43 (PAELEVECATQLRRFGDKLNFRQKLL; UniProt Q13794 18-43, looked up, fragment)” here?
A: > 100000 nM

Q: What about the IC50 (Mcl-1 [1]) of the same compound?
A: 24 nM

Q: And the IC50 (Bfl-1/A1)?
A: 180 nM

Q: What about the IC50 (Bcl-2) of the same compound?
A: > 100000 nM

Q: What about the IC50 (Bcl-xL) of the same compound?
A: > 100000 nM

Q: Which “increase in MDM2 activity” value [2] does the source give for `CC(=O)N[C@@H](CC(C)C)C(=O)N[C@H](C(=O)N[C@@H](Cc1ccccc1)C(=O)N[C@H](CS)C(=O)N[C@@H](Cc1c[nH]cn1)C(=O)N[C@@H](Cc1ccc(O)cc1)C(=O)N[C@@H](Cc1c[nH]c2ccccc12)C(=O)N[C@@H](C)C(=O)N[C@@H](CCC(N)=O)C(=O)N[C@@H](CC(C)C)C(=O)N[C@@H](CS)C(=O)N[C@@H](CO)C(N)=O)[C@@H](C)O` [Peptide 3] (Ac-LTF[dC]HYWAQLCS-NH2; C-terminus assumed) here?
A: more than 3 fold

Q: With `CC[C@H](C)[C@@H]1NC(=O)[C@H](CCCNC(=N)N)NC(=O)[C@H](CCCNC(=N)N)NC(=O)[C@H](CC(C)C)NC(=O)[C@H](NC(=O)[C@H](C)NC(=O)[C@H](C)NC(C)=O)CSCc2ccc(cn2)-c2ccc(nc2)CSC[C@@H](C(=O)N[C@H](C(=O)N[C@@H](CC(N)=O)C(=O)N[C@@H](CC(C)C)C(=O)N[C@@H](CCCNC(=N)N)C(=O)N[C@@H](CCC(N)=O)C(=O)N[C@@H](CCCCN)C(=O)N[C@@H](CC(C)C)C(=O)N[C@@H](CC(C)C)C(=O)N[C@@H](CC(N)=O)C(N)=O)C(C)C)NC(=O)[C@H](CC(=O)O)NC(=O)CNC1=O` [Peptide 6b] as the compound, how does the “times more stable against trypsin than parent linear peptide” value (trypsin [3]) read?
A: > 6 times

Q: And the half-life at 0.208 mM (trypsin [3]; pig (porcine), trypsin (Type IX-S, Sigma) in NH4HCO3 buffer, pH 8)?
A: 11.5 min

Q: And the IC50 (Mcl-1 [4])?
A: 140 nM

Q: And the water solubility (Water solubility)?
A: better water solubility

Q: What about the “times more stable against chymotrypsin than parent linear peptide” value (chymotrypsin [5]) of the same compound?
A: > 16 times

Q: What about the half-life at 0.208 mM (chymotrypsin [5]; cattle (bovine), chymotrypsin (Type II, Sigma) in NH4HCO3 buffer, pH 8) of the same compound?
A: 54 min

Q: And the “enhancement in percent helicity” value [6]?
A: roughly 2 fold

Q: What about the IC50 (GST-Mcl-1) of the same compound?
A: 140 ± 43 nM

Q: For `CC[C@H](C)[C@H](NC(=O)[C@H](CCCNC(=N)N)NC(=O)[C@H](CCCNC(=N)N)NC(=O)[C@H](CC(C)C)NC(=O)[C@H](CCC(N)=O)NC(=O)[C@H](C)NC(=O)[C@H](C)NC(C)=O)C(=O)NCC(=O)N[C@@H](CC(=O)O)C(=O)N[C@@H](CCCCN)C(=O)N[C@H](C(=O)N[C@@H](CC(N)=O)C(=O)N[C@@H](CC(C)C)C(=O)N[C@@H](CCCNC(=N)N)C(=O)N[C@@H](CCC(N)=O)C(=O)N[C@@H](CCCCN)C(=O)N[C@@H](CC(C)C)C(=O)N[C@@H](CC(C)C)C(=O)N[C@@H](CC(N)=O)C(N)=O)C(C)C` [NoxaB^75-93-C75A], which half-life at 0.208 mM (trypsin [7]) is on record?
A: 1.8 min

Q: And the half-life at 0.208 mM (chymotrypsin [8])?
A: 3.3 min
